The results in this text go back to article PMC7613620, “Reaction hijacking of tyrosine tRNA synthetase as a whole-of-life-cycle antimalarial strategy” (Science (New York, N.Y.), 2022).

For orientation: IC50 means the concentration needed to halve the response being measured.

For assay [1], the target named is ubiquitin activating enzyme (UAE) (Homo sapiens, UniProt P22314). Nature of the assay: E1-E2 transthiolation HTRF assay, UAE. In kind it is biochemical. An excerpt:
592 E1-E2 Transthiolation Assays
593 An Homogeneous Time-Resolved Fluorescence (HTRF) enzyme assay was employed to evaluate
594 compound activity against ATG7 as previously described (11). In this assay, a Flag-tagged ATG8 homolog
595 (GABA type A receptor-associated protein; GABARAP) is activated by ATG7 and then transthiolated to a
596 GST-tagged E2 (ATG3). The product of the enzyme reaction, Flag-GABARAP-ATG3-GST, is quantified
597 by measuring FRET between Europium-Cryptate labelled monoclonal anti-Flag M2 (CisBio International,
598 Cat# 61FG2KLB) and PHYCOLINK goat anti-GST allophycocyanin (Prozyme, PJ252p1). The activation
599 and transthiolation of ubiquitin by Ubiquitin Activating Enzyme, activation and transthiolation of NEDD8
600 by NEDD8 Activating Enzyme. […]
606 Compounds were incubated with mature stage V gametocytes ([…], kind gift from Professor Chris Janse
607 at Leiden University Medical Center (LUMC), the Netherlands) for 48 hours in 384 well plates before
608 gamete formation was triggered by a drop in temperature and addition of xanthurenic acid. […]
611 Multiple data sets using different gametocyte cultures were collected on each of two separate days.
613 Activity against exoerythrocytic stages
614 Primary human hepatocytes (H1500.H15B+ Lot No. HC10-10 Cryopreserved human hepatocytes) […]
On the technique in general: In TR-FRET formats the signal depends on donor and acceptor labels being close together.

In assay [2] the test system is P. falciparum (Cam3.II-rev) schizont stage. Nature of the assay: 3 h drug pulse viability assay. Conditions: Plasmodium falciparum, 3 h, read-out: IC50 (Viability). In kind it is cell-based, Plasmodium falciparum. How it is done: 553 Sigma-Aldrich) for 48-72 h. For drug pulse assays, tightly synchronized parasites (1-1.5% parasitemia,
554 0.2% final hematocrit) were added to the plates and incubated for 3 h. Drugs were removed and the
555 parasitemia assessed in the trophozoite stage of the next cycle.
557 Compounds were tested against a range of drug resistant field isolates and laboratory strains using a
558 modified [3H]-hypoxanthine incorporation assay, as previously reported (46). Field isolates 7G8, Cam3.1,
559 Dd2, K1, TM90C2B and NF54 were obtained from MR4 (www.beiresources.org).
561 Mammalian cell culture experiments
562 The HepG2 (Human hepatocyte carcinoma) cell line was procured from ATCC (American Type
563 Culture Collection, Manassas, USA; HB-8065) and viability assessed using Cell Titer-GLO luminescent
564 cell viability assay reagents (Promega, catalogue number: G7570) (47, 48). For the assay, 2000 cells/well
565 were plated in 384-well plates 24 h prior to the experiment and incubated at 37°C in a CO2 incubator. The
566 medium was removed and cells were treated with fresh medium containing either vehicle (0.5% DMSO)
567 or serially diluted test compounds or doxorubicin (1.3 nM to 25 µM) in a final volume of 50 µl/well and
568 further incubated for 72 h at 37°C in a CO2 incubator.
569 were treated with 5 µl of 1% Triton X-100 (final assay conc. 0.1%). Following incubation, 25 µl of medium
570 was discarded and 25 µl of Cell Titer-GLO reagent was added to each well and the plate was kept on a plate
571 shaker for 15 min at 25°C with shaking at 300 rpm. Luminescence signals were measured in a Spectramax
572 M5 reader (Molecular Devices).
574 H1650 is a human lung cancer derived ATG7-null cell line (49) that can be used to assess effects on targets
576 adenocarcinoma; bronchoalveolar carcinoma). Other cells lines used are: H460 (NCI-H460; human lung;
577 carcinoma; large cell lung cancer; ATCC: HTB-177); and HCT116 (human colon; colorectal carcinoma;
578 ATCC: CCL-247; Lot : 5056139). […]
580 inhibitors and cell viability was assessed by comparing the ATP content in compound-treated wells with […]

Where only a bound is given, the exact number is not on record here.

Sequence of ubiquitin activating enzyme (UAE) (P22314 whole entry): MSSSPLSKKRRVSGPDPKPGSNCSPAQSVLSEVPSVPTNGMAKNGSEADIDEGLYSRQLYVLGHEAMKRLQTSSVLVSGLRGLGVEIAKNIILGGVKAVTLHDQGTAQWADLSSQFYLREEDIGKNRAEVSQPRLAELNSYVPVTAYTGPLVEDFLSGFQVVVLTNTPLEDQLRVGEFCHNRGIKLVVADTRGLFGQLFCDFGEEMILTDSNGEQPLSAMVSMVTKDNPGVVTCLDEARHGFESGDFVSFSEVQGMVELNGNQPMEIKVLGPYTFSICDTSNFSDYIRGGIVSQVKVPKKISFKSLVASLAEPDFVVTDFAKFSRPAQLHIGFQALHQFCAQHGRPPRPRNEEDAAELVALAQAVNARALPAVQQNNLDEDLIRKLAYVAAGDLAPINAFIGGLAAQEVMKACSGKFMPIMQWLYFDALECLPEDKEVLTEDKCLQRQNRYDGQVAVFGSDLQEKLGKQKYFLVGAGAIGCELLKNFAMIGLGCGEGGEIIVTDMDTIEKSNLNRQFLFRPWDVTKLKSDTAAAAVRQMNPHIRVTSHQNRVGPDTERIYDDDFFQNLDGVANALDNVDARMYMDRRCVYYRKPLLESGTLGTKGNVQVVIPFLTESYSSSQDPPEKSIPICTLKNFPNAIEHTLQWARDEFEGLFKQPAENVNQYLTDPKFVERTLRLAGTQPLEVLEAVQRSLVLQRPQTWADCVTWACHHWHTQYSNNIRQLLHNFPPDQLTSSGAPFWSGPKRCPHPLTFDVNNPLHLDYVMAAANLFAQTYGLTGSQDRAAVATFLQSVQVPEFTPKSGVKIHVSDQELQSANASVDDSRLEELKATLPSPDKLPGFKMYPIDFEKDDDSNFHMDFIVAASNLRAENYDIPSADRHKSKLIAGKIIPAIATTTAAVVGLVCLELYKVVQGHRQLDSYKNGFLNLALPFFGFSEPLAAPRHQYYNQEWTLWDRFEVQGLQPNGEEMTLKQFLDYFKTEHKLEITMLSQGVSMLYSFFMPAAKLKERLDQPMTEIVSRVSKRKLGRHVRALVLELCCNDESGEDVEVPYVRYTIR

As to `Nc1ncnc2c1c(OC(F)F)nn2[C@@H]1O[C@H](COS(N)(=O)=O)[C@@H](O)[C@H]1O` [ML901], the values for the IC50 in assay [1] and in assay [2] were above 1000 nM and 56 nM, respectively.
